Read-outs that look alike come from different tables or passages of the source.
Tests used:
[1] = Pharmacokinetic study and kidney distribution after single oral administration in ICR mice
Description: (§1) An aliquot (30 µL) of each plasma sample was stored at −80 °C until the analysis. […] An aliquot (50 µL) of each kidney homogenate sample was stored at −80 °C until the analysis.
(§2) For the analysis of SGLT2 inhibitors, aliquots of plasma (30 µL) and kidney homogenate (50 µL) were added to 100 μL of aqueous solution of D4-DWP16001 (IS, 20 ng/mL), and vigorously mixed with 500 μL methyl tert-butyl ether (MTBE) for 15 min. After centrifugation at 16,000 g for 5 min, samples were kept for 1 h at −80 °C to make an aqueous layer freeze. An organic upper layer was transferred to a clean tube and evaporated to dryness under a gentle stream of nitrogen. Then, the dried extract was reconstituted in 150 µL of mobile phase, and a 3 µL aliquot of the reconstituent was injected into a liquid chromatography–tandem mass spectrometry (LC–MS/MS) system.
(§3) Pharmacokinetic parameters, such as the area under plasma concentration-time curve from zero to infinity (AUC), were calculated from plasma concentration vs time curves using non-compartment analysis with WinNonlin (version 5.1; Pharsights, Cary, NC, USA). The AUC ratios (i.e., ratios of kidney AUC to plasma AUC) were calculated by dividing the AUC of the three SGLT2 inhibitors in the kidney by the plasma AUC values of the three SGLT2 inhibitors.

OAT3 = system: T1, OAT3; test: Substrate specificity / uptake in HEK293-OAT3 cells; type: in vitro ADME; settings: for Substrate for OAT3: HEK293-OAT3 vs mock, ± 20 μM probenecid
T1 construct: host or cells: HEK293
Description: HEK293-mock cells and HEK293 cells overexpressing OAT1 and OAT3 transporters (HEK293-OAT1 and -OAT3, respectively) were seeded in poly-D-lysine-coated 24-well plates at a density of 4 × 10^5 cells/well and cultured for 24 h in DMEM supplemented with 10% FBS and 5 mM non-essential amino acids at 37 °C in 8% CO2 condition.
For each experiment, the growth medium was discarded after 24 h, and the attached cells were washed with pre-warmed HBSS and incubated with pre-warmed HBSS for 20 min at 37 °C. To confirm the functionality of OAT1 and OAT3, we measured the uptake of 0.1 µM [^3H]PAH and 0.1 µM [^3H]ES, representative substrates for OAT1 and OAT3, respectively, into in the HEK293-mock cells and HEK293-OAT1 and -OAT3 cells, respectively, for 5 min in the presence and absence of 20 µM probenecid, a typical inhibitor for both OAT1 and OAT3 [8, 9]. The cells were then washed three times with 500 μL of ice-cold HBSS immediately after placing the plates on ice. Subsequently, cells were lysed with 10% sodium dodecyl sulfate and mixed with Optiphase cocktail solution overnight. The radioactivity of the cell lysate was measured using a liquid scintillation counter (Microbeta 2; Perkin Elmer Inc., Boston, MA, USA).
For the concentration dependency in the uptake of DWP16001, the uptake of DWP16001 in a concentration range of 0.5–50 μM dissolved in HBSS was measured for 5 min at 37 °C in the mock cells and HEK293-OAT1 and -OAT3 cells, respectively. After 5 min, the cells were washed three times with 500 μL of ice-cold HBSS immediately after placing the plates on ice.
In the concentration-dependent uptake studies, the transporter-mediated uptake of DWP16001 was calculated by the subtraction of the transport rates of DWP16001 into the mock cells from those of the HEK293-OAT1 and -OAT3 cells. Kinetic parameters for the OAT1- and OAT3-mediated transport of DWP16001 were determined using the Michaelis-Menten equation [V = Vmax⋅S/(Km + S)] [10].

[2] = Protein binding in mouse plasma (rapid equilibrium dialysis); settings: 1000 ng/mL, 4 h at 37 °C, mean ± SD, triplicate
Description: (§4) Four hours after incubation at 37 °C on a shaking incubator at 300 rpm, aliquots (50 μL) were collected from both the sample and buffer chambers and treated with equal volumes of fresh PBS and blank plasma or blank kidney homogenate, respectively, to match the sample matrices. The matrix-matched sample (100 μL) was added 100 μL of aqueous solution of D4-DWP16001 (IS, 20 ng/mL), and vigorously mixed with 1000 μL MTBE for 15 min. After centrifugation at 16,000 g for 5 min, samples were kept for 1 h at −80 °C. An organic upper layer was transferred to a clean tube and evaporated to dryness under a gentle stream of nitrogen. Then, the dried extract was reconstituted in 300 µL of mobile phase and a 3 µL aliquot of the reconstituent was injected into the LC-MS/MS system.
Plasma protein binding was calculated using the following Equation (1) [6, 7]. (1) Undiluted free drug fraction (fu)=Drug concentration in buffer chamber/Drug concentration in plasma sample chamber

SGLT2 [3] = biological target: T2, SGLT2 (Homo sapiens, UniProt P31639); test: Mode of inhibition on SGLT2 (Dixon plots) in CHO-SGLT2 cells; type: cell-based; settings: 1, 2.5, 5, 50 μM [14C]AMG
T2 construct: host or cells: CHO
T2 sequence (P31639 1-672): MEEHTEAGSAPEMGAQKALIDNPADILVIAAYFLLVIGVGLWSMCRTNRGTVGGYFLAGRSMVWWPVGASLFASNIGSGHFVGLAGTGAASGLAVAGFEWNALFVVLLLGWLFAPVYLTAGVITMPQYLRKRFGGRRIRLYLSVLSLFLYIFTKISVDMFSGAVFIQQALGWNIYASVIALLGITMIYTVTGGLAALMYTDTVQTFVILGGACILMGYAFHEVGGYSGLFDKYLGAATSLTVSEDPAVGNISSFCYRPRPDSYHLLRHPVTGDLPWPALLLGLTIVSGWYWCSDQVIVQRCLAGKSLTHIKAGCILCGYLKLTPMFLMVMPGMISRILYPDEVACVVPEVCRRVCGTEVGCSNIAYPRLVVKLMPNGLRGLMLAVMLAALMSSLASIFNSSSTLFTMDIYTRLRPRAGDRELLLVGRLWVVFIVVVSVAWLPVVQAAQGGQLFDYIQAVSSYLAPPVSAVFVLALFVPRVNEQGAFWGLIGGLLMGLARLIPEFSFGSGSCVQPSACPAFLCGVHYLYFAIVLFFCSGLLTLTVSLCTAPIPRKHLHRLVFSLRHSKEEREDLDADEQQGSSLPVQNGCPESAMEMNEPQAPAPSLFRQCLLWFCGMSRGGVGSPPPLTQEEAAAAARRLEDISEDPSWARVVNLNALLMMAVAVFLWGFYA
Description: The radioactivity of the cell lysate was measured following the same sample preparation method described above.

[4] = logP (partition coefficient of n-octanol/water)
[5] = Protein binding in 20% mouse kidney homogenate (rapid equilibrium dialysis); settings: corrected for dilution, 1000 ng/mL, 4 h at 37 °C, mean ± SD, triplicate
Description: as §4
Kidney protein binding was calculated using the following equations, Equations (2) and (3), and a dilution factor (D as a value of 5) for tissue homogenates was used since we used 20% kidney homogenates [6, 7]. (2) Diluted free drug fraction (fu′)=Drug concentration in buffer chamber/Drug concentration in kidney homogenate chamber, (3) Undiluted free drug fraction (fu)=1/D/(1/fu^′−1)+1/D=fu′×0.2/1−fu′×0.8.

in vivo = settings: ICR, mouse, po, 1 mg/kg
Description: as §1, §2, §3

[6] = mouse, in vivo, po, 1 mg/kg
Description: as §1, §2, §3

SGLT2 [7] = biological target: T2, SGLT2; settings: read-out: IC50 values of previous reports; cited from earlier work
[8] = parameters: method as in PMID 27430987; settings: cited from earlier work
[9] = ICR, mouse, plasma, po, 1 mg/kg
[10] = HEK293-OAT3 minus mock, 0.5–50 μM, 5 min

OC[C@H]1O[C@@H](c2cc(Cc3ccc(C4CC4)cc3)c(Cl)c3c2CCO3)[C@H](O)[C@@H](O)[C@@H]1O [DWP16001]
Kp ([1]; ICR, mouse, kidney homogenate and plasma, po, 1 mg/kg): 85 ± 16.1 | half-life ([1]; ICR, mouse, kidney, po, 1 mg/kg, t1/2, kidney, single oral 1 mg/kg, ICR mice, mean ± SD, five mice): 126 ± 80.4 h | AUC(0-inf) [1, 9]: 1730 ± 340 ng·h/mL | AUC(0-t) [1, 9]: 1690 ± 340 ng·h/mL | Cmax [1, 9]: 371 ± 109 ng/mL | Tmax [1, 9]: 0.7 ± 0.3 h | half-life ([1]; ICR, mouse, plasma, po, 1 mg/kg, t1/2, plasma, single oral 1 mg/kg, ICR mice, mean ± SD, five mice): 3.8 ± 1.4 h | AUC72h ([1]; kidney, single oral 1 mg/kg, ICR mice, mean ± SD, five mice): 139.2 ± 5.19 μg∙h/g tissue | Increase of uptake in HEK293-OAT3 cells compared with mock cells (OAT3; 2 μM, 5 min): two-fold | Substrate for OAT3 (OAT3; 2 μM, 5 min): a substrate | OAT3-mediated uptake: CLint (OAT3; [10]): 8.6 µL/min | OAT3-mediated uptake: Vmax (OAT3; [10]): 267.9 pmol/min | Km at 5 min (OAT3; human, HEK293-OAT3 minus mock, 0.5–50 μM, read-out: OAT3-mediated uptake: Km): 31.1 µM | Protein Binding (% Bound) Plasma [2]: 98.50 ± 0.20 % Bound | Mode of inhibition on SGLT2 (SGLT2 [3]): reversible and competitive | logP [4]: 2.65 | Protein Binding (% Bound) Kidney [5]: 97.24 ± 0.08 % Bound

OC[C@H]1O[C@@H](c2ccc(F)c(Cc3cc4ccccc4s3)c2)[C@H](O)[C@@H](O)[C@@H]1O [Ipragliflozin, ipragliflozin]
logP (physchem): 2.56 | Substrate for OAT3 (OAT3; 2 μM, 5 min): not substrates | AUC(0-inf) (in vivo): 1970 ± 410 ng·h/mL | AUC(0-t) (in vivo): 1960 ± 410 ng·h/mL | Cmax (in vivo): 410 ± 59.1 ng/mL | Kp (in vivo): 38.4 ± 5.3 | Tmax (in vivo): 0.6 ± 0.2 h | Mode of inhibition on SGLT2 (SGLT2 [3]): reversible and competitive | AUC72h [6]: 73.65 ± 7.05 μg∙h/g tissue | IC50 (SGLT2 [7]): 6.75 to 8.07 nM | Duration of increased urinary glucose excretion post dose [8]: ≥ 18 h

Reference: article PMC7151106 (Pharmaceutics, 2020)
